Each compound was assayed against T1, AHR (Mus musculus, UniProt P30561) (assay: In vitro assay 3: antagonism in mouse cell line (AHR transactivation, firefly luciferase reporter, kynurenic acid prestimulated)). Conditions: mouse Hepa 1c1c7 cells, 200 μM kynurenic acid, 20 hours, read-out: AHR Antagonism Mouse IC50.
T1 sequence (P30561 1-848 P471L/N533S/M589L): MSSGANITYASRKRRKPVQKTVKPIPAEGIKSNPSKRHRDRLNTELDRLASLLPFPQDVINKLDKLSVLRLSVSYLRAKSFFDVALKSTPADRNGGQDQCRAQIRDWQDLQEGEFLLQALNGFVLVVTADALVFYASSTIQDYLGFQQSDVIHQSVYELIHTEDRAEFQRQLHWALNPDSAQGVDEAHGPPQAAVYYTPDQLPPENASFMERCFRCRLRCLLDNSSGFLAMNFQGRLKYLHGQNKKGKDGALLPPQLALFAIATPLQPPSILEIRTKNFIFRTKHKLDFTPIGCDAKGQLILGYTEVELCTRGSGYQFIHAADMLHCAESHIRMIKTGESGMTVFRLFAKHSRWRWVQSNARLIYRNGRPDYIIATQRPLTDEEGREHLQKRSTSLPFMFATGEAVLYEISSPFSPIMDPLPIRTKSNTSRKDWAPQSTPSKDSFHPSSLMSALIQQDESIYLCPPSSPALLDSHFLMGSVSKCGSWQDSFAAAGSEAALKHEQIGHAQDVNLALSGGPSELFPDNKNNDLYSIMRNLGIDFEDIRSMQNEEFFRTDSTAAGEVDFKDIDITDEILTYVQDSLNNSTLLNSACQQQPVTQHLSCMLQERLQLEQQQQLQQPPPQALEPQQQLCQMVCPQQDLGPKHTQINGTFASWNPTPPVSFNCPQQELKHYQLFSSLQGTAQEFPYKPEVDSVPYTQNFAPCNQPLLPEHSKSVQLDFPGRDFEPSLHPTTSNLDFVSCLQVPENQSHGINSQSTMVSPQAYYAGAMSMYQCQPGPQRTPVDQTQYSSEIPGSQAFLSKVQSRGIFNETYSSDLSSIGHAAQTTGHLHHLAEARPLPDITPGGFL
Format: cell-based
Description: Examples were tested in selected biological assays one or more times. When tested more than once, data are reported as either average values or as median values, wherein • the average value, also referred to as the arithmetic mean value, represents the sum of the values obtained divided by the number of times tested, and • the median value represents the middle number of the group of values when ranked in ascending or descending order. If the number of values in the data set is odd, the median is the middle value. If the number of values in the data set is even, the median is the arithmetic mean of the two middle values.
In addition the cells were stably transfected with an AHR inducible firefly luciferase reporter gene construct that carried AHR-binding sites (DRE) in its promoter. Kynurenic acid is an endogenous AHR activating ligand and was used to prestimulate test cells prior to testing the antagonistic properties of compounds.
As positive inhibition control cells without addition of kynurenic acid were incubated. Normalization was done by positive and negative controls.
Firefly luciferase activity was determined by the SteadyGlo Luciferase Assay System (Promega, #E2550).

SMILES | IC50 [nM]
Cn1cc(-c2nc3c4cccc(Br)c4nc(N[C@@H]4CNCCNC4=O)n3n2)cn1 [Example 267, (6R)-6-{[7-bromo-2-(1-methyl-1H-pyrazol-4-yl)[1,2,4]triazolo[1,5-c]quinazolin-5-yl]amino}-1,4-diazepan-5-one] | 24.7
COc1ccc(-c2nc3c4cc(C)ccc4nc(N[C@@H]4CNCCNC4=O)n3n2)cc1 [Example 280, (6R)-6-{[2-(4-methoxyphenyl)-9-methyl[1,2,4]triazolo[1,5-c]quinazolin-5-yl]amino}-1,4-diazepan-5-one] | 33.3
O=C1NCCNCC1Nc1nc2cccc(Br)c2c2nc(-c3ccc(F)cc3)nn12 (stereo not drawn) [Example 282, 6-{[10-bromo-2-(4-fluorophenyl)[1,2,4]triazolo[1,5-c]quinazolin-5-yl]amino}-1,4-diazepan-5-one] | 26.9
O=C1NCCNCC1Nc1nc2cccc(Br)c2c2nc(-c3cccc(F)c3)nn12 (stereo not drawn) [Example 283, 6-{[10-bromo-2-(3-fluorophenyl)[1,2,4]triazolo[1,5-c]quinazolin-5-yl]amino}-1,4-diazepan-5-one] | 172
COc1ccc(-c2nc3c4c(C)cccc4nc(N[C@@H]4CNCCNC4=O)n3n2)cc1 [Example 290, (6R)-6-{[2-(4-methoxyphenyl)-10-methyl[1,2,4]triazolo[1,5-c]quinazolin-5-yl]amino}-1,4-diazepan-5-one] | 288
COc1ccc(-c2nc3c4c(Cl)cccc4nc(NC4CNCCNC4=O)n3n2)cc1 (stereo not drawn) [Example 292, 6-{[10-chloro-2-(4-methoxyphenyl)[1,2,4]triazolo[1,5-c]quinazolin-5-yl]amino}-1,4-diazepan-5-one] | 40.3
O=C1NCCNCC1Nc1nc2cccc(Cl)c2c2nc(-c3ccc(F)cc3)nn12 (stereo not drawn) [Example 293, 6-{[10-chloro-2-(4-fluorophenyl)[1,2,4]triazolo[1,5-c]quinazolin-5-yl]amino}-1,4-diazepan-5-one] | 56.1
Cn1cc(-c2nc3c4c(C5CC5)cccc4nc(NC4CNCCNC4=O)n3n2)cn1 (stereo not drawn) [Example 294, 6-{[10-cyclopropyl-2-(1-methyl-1H-pyrazol-4-yl)[1,2,4]triazolo[1,5-c]quinazolin-5-yl]amino}-1,4-diazepan-5-one] | 5430
CN1CC[C@@H](Nc2nc3ccccc3c3nc(-c4ccc(OC(F)(F)F)cc4)nn23)C1=O [Example 328, (3R)-1-methyl-3-({2-[4-(trifluoromethoxy)phenyl][1,2,4]triazolo[1,5-c]quinazolin-5-yl}amino)pyrrolidin-2-one] | 19.3
N#Cc1ccc(-c2nc3c4ccccc4nc(N[C@@H]4CCNC4=O)n3n2)cc1 [Example 388, 4-(5-{[(3R)-2-oxopyrrolidin-3-yl]amino}[1,2,4]triazolo[1,5-c]quinazolin-2-yl)benzonitrile] | 2890
O=C1NCCNC[C@H]1Nc1nc2ccccc2c2nc(-c3cnn(CCO)c3)nn12 [Example 414, (6R)-5-({2-[1-(2-hydroxyethyl)-1H-pyrazol-4-yl][1,2,4]triazolo[1,5-c]quinazolin-5-yl}amino)-1,4-diazepan-5-one] | > 20000
COc1ccc(-c2nc3c4cc(C(F)(F)F)ccc4nc(N[C@@H]4CNCCNC4=O)n3n2)cc1 [Example 418, (6R)-6-{[2-(4-methoxyphenyl)-9-(trifluoromethyl)[1,2,4]triazolo[1,5-c]quinazolin-5-yl]amino}-1,4-diazepan-5-one] | 8710
CC[C@H](Nc1nc2ccccc2c2nc(-c3cccc(OC(F)(F)F)c3)nn12)C(N)=O [Example 448, (2S)-2-({2-[3-(trifluoromethoxy)phenyl][1,2,4]triazolo[1,5-c]quinazolin-5-yl}amino)butanamide] | 134
O=C1NCCC[C@H]1Nc1nc2ccccc2c2nc(-c3ccccc3Br)nn12 [Example 454, (3R)-3-{[2-(2-bromophenyl)[1,2,4]triazolo[1,5-c]quinazolin-5-yl]amino}piperidin-2-one] | 165
CC[C@H](Nc1nc2ccccc2c2nc(-c3ccccc3OC(F)(F)F)nn12)C(N)=O [Example 462, (2S)-2-({2-[2-(trifluoromethoxy)phenyl][1,2,4]triazolo[1,5-c]quinazolin-5-yl}amino)butanamide] | 81.2

Next, values leading:

IC50 [nM] | SMILES
17.5 | O=C1NCCCC[C@@H]1Nc1nc2ccccc2c2nc(-c3ccccc3Br)nn12 [Example 453, (3S)-3-{[2-(2-bromophenyl)[1,2,4]triazolo[1,5-c]quinazolin-5-yl]amino}azepan-2-one]
16.7 | COc1ccc(-c2nc3c4cccc(Br)c4nc(N[C@H]4CCCCNC4=O)n3n2)cc1 [Example 211, (3S)-3-{[7-bromo-2-(4-methoxyphenyl)[1,2,4]triazolo[1,5-c]quinazolin-5-yl]amino}azepan-2-one]
15.5 | O=C1NCCCC[C@@H]1Nc1nc2c(Br)cccc2c2nc(-c3cccc(F)c3)nn12 [Example 209, (3S)-3-{[7-bromo-2-(3-fluorophenyl)[1,2,4]triazolo[1,5-c]quinazolin-5-yl]amino}azepan-2-one]
6.94 | CSc1ccc(-c2nc3c4ccccc4nc(N[C@@H]4CNCCNC4=O)n3n2)cc1 [Example 256, (6R)-6-({2-[4-(methylsulfanyl)phenyl][1,2,4]triazolo[1,5-c]quinazolin-5-yl}amino)-1,4-diazepan-5-one]
6.75 | O=C1NCCNC[C@H]1Nc1nc2ccccc2c2nc(-c3ccc(F)cc3)nn12 [Example 260, (6R)-6-{[2-(4-fluorophenyl)[1,2,4]triazolo[1,5-c]quinazolin-5-yl]amino}-1,4-diazepan-5-one]
6.04 | O=C1NCCC[C@H]1Nc1nc2ccccc2c2nc(-c3ccc(OC(F)(F)F)cc3)nn12 [Example 332, (3R)-3-({2-[4-(trifluoromethoxy)phenyl][1,2,4]triazolo[1,5-c]quinazolin-5-yl}amino)piperidin-2-one]
5.29 | O=C1NCC[C@H]1Nc1nc2ccccc2c2nc(-c3ccc(OC(F)(F)F)cc3)nn12 [Example 327, (3R)-3-({2-[4-(trifluoromethoxy)phenyl][1,2,4]triazolo[1,5-c]quinazolin-5-yl}amino)pyrrolidin-2-one]
5.01 | O=C1NCCCC[C@@H]1Nc1nc2c(Br)cccc2c2nc(-c3ccc(F)cc3)nn12 [Example 210, (3S)-3-{[7-bromo-2-(4-fluorophenyl)[1,2,4]triazolo[1,5-c]quinazolin-5-yl]amino}azepan-2-one]
3.16 | O=C1NCCNC[C@H]1Nc1nc2c(F)cccc2c2nc(-c3ccc(F)cc3)nn12 [Example 427, (6R)-6-{[7-fluoro-2-(4-fluorophenyl)[1,2,4]triazolo[1,5-c]quinazolin-5-yl]amino}-1,4-diazepan-5-one]
2.54 | O=C1NCC[C@H]1Nc1nc2c(Br)cccc2c2nc(-c3ccc(F)cc3)nn12 [Example 217, (3R)-3-{[7-bromo-2-(4-fluorophenyl)[1,2,4]triazolo[1,5-c]quinazolin-5-yl]amino}pyrrolidin-2-one]
1.53 | O=C1NCCC[C@H]1Nc1nc2c(Br)cccc2c2nc(-c3ccc(F)cc3)nn12 [Example 226, (3R)-3-{[7-bromo-2-(4-fluorophenyl)[1,2,4]triazolo[1,5-c]quinazolin-5-yl]amino}piperidin-2-one]
1.23 | COc1ccc(-c2nc3c4cccc(Br)c4nc(N[C@@H]4CCCCNC4=O)n3n2)cc1 [Example 215, (3R)-3-{[7-bromo-2-(4-methoxyphenyl)[1,2,4]triazolo[1,5-c]quinazolin-5-yl]amino}azepan-2-one]
1.2 | O=C1NCCNC[C@H]1Nc1nc2c(Br)cccc2c2nc(-c3ccc(F)cc3)nn12 [Example 269, (6R)-6-{[7-bromo-2-(4-fluorophenyl)[1,2,4]triazolo[1,5-c]quinazolin-5-yl]amino}-1,4-diazepan-5-one]
0.644 | O=C1NCCNC[C@H]1Nc1nc2ccccc2c2nc(-c3ccc(C(F)(F)F)cc3)nn12 [Example 259, (6R)-6-({2-[4-(trifluoromethyl)phenyl][1,2,4]triazolo[1,5-c]quinazolin-5-yl}amino)-1,4-diazepan-5-one]

Same assay, conditions: read-out: AHR Antagonism Mouse IC50, mouse Hepa 1c1c7 cells, 200 μM kynurenic acid, 20 hours

SMILES | IC50 [nM]
O=C1NCCCC[C@@H]1Nc1nc2ccccc2c2nc(-c3cc(C(F)(F)F)ccn3)nn12 [Example 364] | 247
